# Results: US10537608B2, “Adiponectin peptidomimetics for treating ocular disorders” (Allysta Pharmaceuticals, Inc., priority 2015, dated 2020)
# Primed or numbered codes have the meaning given here. Where no end group is shown, it is not given here. [ ]: non-standard residue; d: D form. Dab′ = 2,3-diamino butyric acid; Nva = CCC[C@H](N)C(=O)O
# Experiments:
# Format in all cases: in vivo, C57BL/6 mice
# [1] = system: Experimental dry eye (EDE) mice; test: Corneal fluorescein staining in experimental dry eye mice (Example 4); details: single treatment, topical; D5 and D10
# Experimental: Experimental dry eye (EDE) was induced in 8-week old female C57BL/6 mice by subcutaneous injection of 0.5 mg/0.2 mL scopolamine hydrobromide (Sigma-Aldrich, St. Louis, Mo.) three times a day (9 AM 0.3 mL, 1:30 PM 0.3 mL, and 6:00 PM 0.3 mL). The mice were also exposed to an air draft and 30% ambient humidity. Five experimental groups used in this study included: (1) untreated control mice (UT; no dry eye treatment and no topical treatment); (2) EDE control mice received a balanced salt solution (BSS); (3) EDE mice received ADP 355 0.1% (single chain adiponectin peptidomimetic (ADP 355) in BSS); (4) EDE mice received Lifitegrast 5%; and (5) EDE mice received 0.1% peptide adiponectin peptidomimetic (ADP 355) in BSS+Lifitegrast 5%. […] Mice were evaluated at baseline, day 5 and day 10 after the treatment initiation.
# Experiment 2—Corneal staining: The purpose of the corneal staining assay was to evaluate damage to the cornea epithelia in the murine EDE subject either as a consequence of inducing dry eye or due to treatment with 0.1% ADP 355 or with Lifitegrast 5% alone or with the combination of 0.1% ADP 355+Lifitegrast 5%. […] Corneal staining was assessed in four quadrants using a 4-point scale with 16 being the maximum score.
# Briefly, fluorescein dye (1 μï) was instilled into the eye and then the eye was washed with saline. […] The average score from the five regions was recorded. […]
# [2] = system: Experimental dry eye (EDE) mice; test: Tear volume by phenol red thread tear test in experimental dry eye mice (Example 3); details: 0.01% in BSS; for tear production, as measured by tear volume, compared to untreated or BSS treated EDE mice: topical 2 μl/eye 3 times a day, day 5 and day 10, p-value<0.05 vs. EDE; for difference in tear volume among those treated with ADP355, ADP399 and globular adiponectin: topical, EDE mice
# Experimental: (§1) Experimental dry eye (EDE) was induced in 8-week old female C57BL/6 mice by subcutaneous injection of 0.5 mg/0.2 mL scopolamine hydrobromide (Sigma-Aldrich, St. Louis, Mo.) three times a day (9 AM, 1:30 PM and 6 PM). A dose of 0.3 mL scopolamine hydrobromide was administered at each injection. The mice were also exposed to an air draft and 30% ambient humidity. 6 experimental groups used in this study included: (1) untreated control mice (UT; no dry eye treatment and no topical treatment); (2) untreated EDE control mice (EDE; received no topical administration); (3) EDE control mice received a balanced salt solution (BSS); (4) EDE mice received 0.01% single chain adiponectin peptidomimetic (ADP355) in BSS; (5) EDE mice receiving 0.01% peptide dimer adiponectin peptidomimetic (ADP399) in BSS; and (6) EDE mice receiving 0.01% recombinant globular adiponectin (gAdipo) in BSS. Each group included 5 mice. EDE mice treated with BSS received topical bilateral administration of 2 μï/eye, 3 times a day. EDE mice treated with ADP355 received topical bilateral administration of 2 μï/eye, 3 times a day. EDE mice treated with ADP-399 received topical bilateral administration of 2 μï/eye, 3 times a day. The gAdipo treated mice served as a positive treatment control. Mice were evaluated at baseline, day 5 and day 10 after the treatment initiation. In some experiments, ADP355, ADP-399 and gAdipo were resuspended in 0.01% BSA.
# Tear volume was measured using a phenol red thread tear test. Briefly, a cotton thread treated with phenol red at its tip (Zone-Quick; Oasis, Glendora, Calif.) was held with jeweler's forceps and placed in the tear meniscus of the lateral canthus for 20 sees to contact tear fluid. Using a microscope, the length of the red portion (wet portion) of the thread was measured in millimeters. A standard curve was derived to convert the distance measurement into tear volume.
# [3] = system: Experimental dry eye (EDE) mice; test: Corneal fluorescein staining in experimental dry eye mice (Example 3); details: 0.01% in BSS; for corneal staining (corneal irregularity) compared to untreated EDE mice: topical 3 times a day, score 0-4, day 5 and day 10, p-value<0.05 vs. EDE; for corneal surfaces compared to untreated normal mice (UT) and positive control gAdipo-treated mice: topical, EDE mice
# Experimental: as §1
# The severity of corneal epithelial damage was evaluated by corneal fluorescein staining. Briefly, 1% fluorescein dye (1 μï) was instilled into the eye and then the eye was washed with saline. 10 minutes after application of the dye, the eye was photographed with a slip lamp microscope using a cobalt blue light. The stained area was graded using a scoring system by two blinded observers. […] The average score from the five regions was recorded. […] In addition, the adiponectin peptidomimetic-treated mice (ADP355 and ADP-399) had corneal surfaces that were similar to those of untreated normal mice (UT) and positive control globular adiponectin-treated mice (gAdipo). The corneal surface scores in all groups at day 10 were similar to those at day 5 after treatment initiation.
Compound,corneal disruptions resulting from induced dry eye (corneal staining grade) vs untreated eyes (BSS) [1],"tear production, as measured by tear volume, compared to untreated or BSS treated EDE mice [2]","difference in tear volume among those treated with ADP355, ADP399 and globular adiponectin [2]",corneal staining (corneal irregularity) compared to untreated EDE mice [3],corneal surfaces compared to untreated normal mice (UT) and positive control gAdipo-treated mice [3]
"DAsn-Ile-Pro-Nva-Leu-Tyr-DSer-Phe-Ala-DSer-NH2 ([dN]IP[Nva]LY[dS]FA[dS]-NH2; N-terminus assumed; SMILES CCC[C@H](NC(=O)[C@@H]1CCCN1C(=O)[C@@H](NC(=O)[C@H](N)CC(N)=O)[C@@H](C)CC)C(=O)N[C@@H](CC(C)C)C(=O)N[C@@H](Cc1ccc(O)cc1)C(=O)N[C@H](CO)C(=O)N[C@@H](Cc1ccccc1)C(=O)N[C@@H](C)C(=O)N[C@H](CO)C(N)=O) [ADP355, single chain adiponectin peptidomimetic]",improved corneal disruptions,higher,no significant difference,less corneal staining,similar
"CS(=O)(=O)c1cccc(C[C@H](NC(=O)c2c(Cl)cc3c(c2Cl)CCN(C(=O)c2ccc4ccoc4c2)C3)C(=O)O)c1 [Lifitegrast, reference compound]",improved corneal disruptions,–,–,–,–
"(DAsn-Ile-Pro-Nva-Leu-Tyr-DSer-Phe-Ala-DSer-His-Pro)2-Dab-NH2 ([dN]IP[Nva]LY[dS]FA[dS]HP[Dab′]-NH2; also: branched dimer: two chains joined via C-terminal Dab) [ADP399, linear branched dimer of ADP355]",–,higher,no significant difference,less corneal staining,similar
